# Experiments:
# [1] = tested on: motility of the gastrointestinal tract; experiment: Model of irritable bowel syndrome: motility of the gastrointestinal tract (activated carbon); type: in vivo, nonlinear male mice
# Protocol: The effect on the motility of the gastrointestinal tract was studied on a model of irritable bowel syndrome in nonlinear male mice weighing 24-30 g. The animals were intragastrically injected with a solution of activated carbon (50 mg/ml, in a volume of 10 ml/kg) and the speed (in minutes) of the movement of activated coal through the intestines of animals. The compounds under study were intragastrically administered once 1 hour before the introduction of activated carbon. Drotaverine (6.7 mg/kg), Buscopan (3 mg/kg) and Trimedat (33 mg/kg) were used as reference drugs.
# model of Crohn's disease = experiment: Mouse model of Crohn's disease (TNBS); type: in vivo, male balb/c mice; settings: for The portion of dead animals: TNBS, 7 days, 10 animals
# Protocol: The study was performed on male balb/c mice. Animals, which starved for 24 hours, were injected with 150 μl/mouse of TNBS solution in 50% ethanol into the rectal hole of the mouse to the depth of 4 cm using a 3.5 F catheter. Next, the mice were turned upside down and held for 60 seconds. 150 μl of the 50% ethanol solution was injected into the healthy control (intact animals). The study lasted 7 days. The development of pathology was assessed by the death of animals.
# indomethacin colitis = experiment: Model of colitis induced by indomethacin; type: in vivo, male Wistar rats; settings: day 4
# Protocol: The study was performed on male Wistar rats, which were subcutaneously injected with an indomethacin solution in a dose of 9 mg/kg for two days running to induce colitis. The injection solution was prepared as follows: first, indomethacin was dissolved in 100% ethanol, then it was diluted in 5% NaHCO3 solution. On the 4th day after euthanasia, the stomach and intestine were removed from the animals in the CO2 chamber, then the caecum was excised, 10 cm from the ileum and large intestine was cut off, and 5 cm—from the caecum, to assess gross lesions (J Ethnopharmacol. 2004 February; 90(2-3): 195-204).
# [2] = tested on: diarrhea induced by castor oil; experiment: Mouse model of diarrhea induced by castor oil; type: in vivo, Balb/c mice; settings: 1 mg/kg; M ± m, n = 10; observation 4 hours
# Protocol: Balb/c mice, which starved for 24 hours, were given castor oil intragastrically. Then the animals were encaged into individual cages with a bottom covered with white paper, and time before the onset of diarrhea was noted. The observation time is 4 hours (J Pharm Pharmacol. 2015 February; 67(2):244-54).
# [3] = tested on: imiquimod-induced ear psoriasis; experiment: Mouse model of imiquimod-induced ear psoriasis; type: in vivo, female balb/c mice; settings: 0.05%, M ± m, n = 10
# Protocol: Psoriasis was simulated in female balb/c mice by applying Aldar cream (5% imiquimod) on the inner side of the right ear daily 1 time per day for 10 days (J Immunol. 2009 May 1; 182(9):5836-45). Vaseline was applied to intact animals: 20 mg on the right ear.
# The assessment of the development of pathology was performed on 2nd, 4th, 6th, 8th and 10th day before the next application of Aldar cream by measuring the thickness of the left and right ears.
# [4] = tested on: imiquimod-induced psoriasis on the back; experiment: Mouse model of imiquimod-induced psoriasis on the back; type: in vivo
# Protocol: Psoriasis was simulated in female balb/c mice by applying Aldar cream (5% imiquimod) on a previously shaved skin back area of 3×4 cm daily 1 time per day for 15 days (J Immunol. 2009 May 1; 182(9):5836-45). Intact animals were applied with vaseline: 120 mg per the shaved back area.
# The assessment of the development of pathology was performed on the 10th, 12th, 13th and 15th day before the next application of Aldar cream according to the index: the thickness of the skin fold on the back. The thickness of the skin fold on the back was measured with a Digimatic MK-25 micrometer (Mitutoyo, Japan).
# [5] = inducer alone (control group), 9 mg/kg subcutaneously two days running
structure (smiles),measurement,setting,value
"CCCC[N+]1(C)[C@@H]2C[C@@H](OC(=O)[C@H](CO)c3ccccc3)C[C@H]1[C@@H]1O[C@@H]12 (some centres unmarked) [Buscopan, reference compound]",The evacuation speed of activated carbon,[1]; 3 mg/kg once intragastrically 1 hour before activated carbon,73.2 ± 2.87 min
C[C@]12C=CC(=O)C=C1CC[C@@H]1[C@@H]2[C@@H](O)C[C@@]2(C)[C@H]1CC[C@]2(O)C(=O)CO [Prednisolone],The portion of dead animals,"model of Crohn's disease; 5 mg/kg, 1 time per day",80%
same,The portion of dead animals,model of Crohn's disease; 10 mg/kg,60%
same,reduction of the mortality,model of Crohn's disease; summary of Table 4,20-40%
same,"Macroscopic assessment of the lesion, Caecum","indomethacin colitis; 2 mg/kg, M ± m, n = 10",0.3 ± 0.2& points
same,"Macroscopic assessment of the lesion, Ileum","indomethacin colitis; 2 mg/kg, M ± m, n = 10",0.6 ± 0.6& points
same,"Macroscopic assessment of the lesion, Large intestine","indomethacin colitis; 2 mg/kg, M ± m, n = 10",0.4 ± 0.2 points
same,"Macroscopic assessment of the lesion, Overall assessment","indomethacin colitis; 2 mg/kg, M ± m, n = 10",1.3 ± 0.9& points
"CN(C)C(=O)C(CCN1CCC(O)(c2ccc(Cl)cc2)CC1)(c1ccccc1)c1ccccc1 [Loperamide, reference compound]",The time of onset of diarrhea,[2],56.40 ± 5.14& min
COc1ccc2c(c1)c(CC(=O)O)c(C)n2C(=O)c1ccc(Cl)cc1 [Indomethacin],"Macroscopic assessment of the lesion, Caecum",indomethacin colitis; [5],1.2 ± 0.4 points
same,"Macroscopic assessment of the lesion, Ileum",indomethacin colitis; [5],5.6 ± 1.2 points
same,"Macroscopic assessment of the lesion, Large intestine",indomethacin colitis; [5],1.2 ± 0.3 points
same,"Macroscopic assessment of the lesion, Overall assessment",indomethacin colitis; [5],8.0 ± 1.3 points
"CCC(COC(=O)c1cc(OC)c(OC)c(OC)c1)(c1ccccc1)N(C)C.O=C(O)/C=C\C(=O)O (centres unmarked) [Trimedat, reference compound]",The evacuation speed of activated carbon,[1]; 33 mg/kg once intragastrically 1 hour before activated carbon,83.65 ± 2.42 min
"CCOc1ccc(/C=C2\NCCc3cc(OCC)c(OCC)cc32)cc1OCC [Drotaverine, reference compound]",The time of onset of diarrhea,[2],43.60 ± 2.61& min
same,The evacuation speed of activated carbon,[1]; 6.7 mg/kg once intragastrically 1 hour before activated carbon,105.85 ± 2.39 min
"CCC(=O)O[C@]1(C(=O)CCl)[C@@H](C)C[C@H]2[C@@H]3CCC4=CC(=O)C=C[C@]4(C)[C@@]3(F)[C@@H](O)C[C@@]21C [Dermovate, clobetasol, reference compound]",The gain in the thickness of the right (affected) ear relatively day 0,[3]; day 2,18.9%
same,The gain in the thickness of the right (affected) ear relatively day 0,[3]; day 4,22.6%
same,The gain in the thickness of the right (affected) ear relatively day 0,[3]; day 6,24.6%
same,The gain in the thickness of the right (affected) ear relatively day 0,[3]; day 8,21.3%
same,The gain in the thickness of the right (affected) ear relatively day 0,[3]; day 10,16.5%
same,The gain of the thickness of the back skin to the thickness before the start of the study,"[4]; 0.05%, day 10, M ± m, n = 10",−26.8%
same,toxic effect,"[4]; on the 12th day of the study, thinning the skin",total death of animals

# Source: US11584709B2, “Multitarget drug for treating diseases in mammals” (“PHARMENTERPRISES EURASIA” LIMITED LIABILITY COMPANY, priority 2017, dated 2023)
